Experimental data: ChEMBL document CHEMBL1201862, “PubChem BioAssay data set” (2004)
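Tested at 5 concentrations; 48 h exposure; 96-well plates; endpoints linearly interpolated, else capped at highest concentration. Here, GI50 denotes the concentration required for 50% inhibition of growth.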 Active and inactive are the calls of the source. No stated cut-off is given here; in the data, active = GI50 up to about 1.1 µM and inactive = higher.

How the values were obtained:
Assay in all cases: inhibition of tumour cell growth, NCI panel, 48 h
SK-MEL-5 = system: SK-MEL-5
786-0 = system: 786-0
NCI-H23 = system: NCI-H23
A498 = system: A498
NCI-H226 = system: NCI-H226
MDA-MB-231 = system: MDA-MB-231
Hs-578T = system: Hs-578T
HT-29 = system: HT-29
CCRF-CEM = system: CCRF-CEM
TK-10 = system: TK-10
SNB-75 = system: SNB-75
EKVX = system: EKVX
OVCAR-5 = system: OVCAR-5
SK-MEL-28 = system: SK-MEL-28
SK-OV-3 = system: SK-OV-3
UO-31 = system: UO-31
M14 = system: M14
ACHN = system: ACHN
MDA-MB-435 = system: MDA-MB-435
SN12C = system: SN12C
COLO 205 = system: COLO 205
HOP-62 = system: HOP-62
SK-MEL-2 = system: SK-MEL-2
SNB-19 = system: SNB-19
SF-539 = system: SF-539
NCI-H460 = system: NCI-H460
NCI-H522 = system: NCI-H522
HOP-92 = system: HOP-92
Malme-3M = system: Malme-3M
UACC-62 = system: UACC-62
DU-145 = system: DU-145
CAKI-1 = system: CAKI-1
MDA-N = system: MDA-N
SF-268 = system: SF-268
A549 = system: A549
SF-295 = system: SF-295
UACC-257 = system: UACC-257
BT-549 = system: BT-549
RXF 393 = system: RXF 393
HCT-116 = system: HCT-116
HL-60 = system: HL-60
MCF7 = system: MCF7
OVCAR-3 = system: OVCAR-3
SW-620 = system: SW-620
MOLT-4 = system: MOLT-4
IGROV-1 = system: IGROV-1
T47D = system: T47D
RPMI-8226 = system: RPMI-8226
KM12 = system: KM12
HCC 2998 = system: HCC 2998
NCI/ADR-RES = system: NCI/ADR-RES
SR = system: SR
PC-3 = system: PC-3
U-251 = system: U-251
HCT-15 = system: HCT-15
LOX IMVI = system: LOX IMVI
OVCAR-8 = system: OVCAR-8
K562 = system: K562
OVCAR-4 = system: OVCAR-4

COc1ccc(/N=C(/SS/C(=N/c2ccc(OC)cc2)c2ccc([N+](=O)[O-])o2)c2ccc([N+](=O)[O-])o2)cc1
GI50 (SK-MEL-5): 5.75 µM (inactive) | GI50 (786-0): 0.719 µM (active) | GI50 (NCI-H23): 1.45 µM (inactive) | GI50 (A498): 12.4 µM (inactive) | GI50 (NCI-H226): 10.1 µM (inactive) | GI50 (MDA-MB-231): 2.77 µM (inactive) | GI50 (Hs-578T): 2.19 µM (inactive) | GI50 (HT-29): 0.701 µM (active) | GI50 (CCRF-CEM): 2.08 µM (inactive) | GI50 (TK-10): 2.38 µM (inactive) | GI50 (SNB-75): 1.27 µM (inactive) | GI50 (EKVX): 1.52 µM (inactive) | GI50 (OVCAR-5): 2.2 µM (inactive) | GI50 (SK-MEL-28): 2.49 µM (inactive) | GI50 (SK-OV-3): 2.79 µM (inactive) | GI50 (UO-31): 1.24 µM (inactive) | GI50 (M14): 1.7 µM (inactive) | GI50 (ACHN): 1.41 µM (inactive) | GI50 (MDA-MB-435): 1.59 µM (inactive) | GI50 (SN12C): 1.95 µM (inactive) | GI50 (COLO 205): 1.92 µM (inactive) | GI50 (HOP-62): 1.94 µM (inactive) | GI50 (SK-MEL-2): 2.08 µM (inactive) | GI50 (SNB-19): 1.38 µM (inactive) | GI50 (SF-539): 1.49 µM (inactive) | GI50 (NCI-H460): 0.982 µM (active) | GI50 (NCI-H522): 0.286 µM (active) | GI50 (HOP-92): 3.53 µM (inactive) | GI50 (Malme-3M): 2.02 µM (inactive) | GI50 (UACC-62): 1.28 µM (inactive) | GI50 (DU-145): 1.41 µM (inactive) | GI50 (CAKI-1): 1.92 µM (inactive) | GI50 (MDA-N): 2.07 µM (inactive) | GI50 (SF-268): 1.89 µM (inactive) | GI50 (A549): 2.79 µM (inactive) | GI50 (SF-295): 2.16 µM (inactive) | GI50 (UACC-257): 2.06 µM (inactive) | GI50 (BT-549): 1.54 µM (inactive) | GI50 (RXF 393): 0.695 µM (active) | GI50 (HCT-116): 1.18 µM (inactive) | GI50 (HL-60): 1.69 µM (inactive) | GI50 (MCF7): 0.51 µM (active) | GI50 (OVCAR-3): 0.624 µM (active) | GI50 (SW-620): 0.35 µM (active) | GI50 (MOLT-4): 4.08 µM (inactive) | GI50 (IGROV-1): 1.75 µM (inactive) | GI50 (T47D): 1.61 µM (inactive) | GI50 (RPMI-8226): 0.489 µM (active) | GI50 (KM12): 1.14 µM (inactive) | GI50 (HCC 2998): 1.32 µM (inactive) | GI50 (NCI/ADR-RES): 1.39 µM (inactive) | GI50 (SR): 0.547 µM (active) | GI50 (PC-3): 0.838 µM (active) | GI50 (U-251): 0.35 µM (active) | GI50 (HCT-15): 0.489 µM | GI50 (LOX IMVI): 1.78 µM (inactive) | GI50 (OVCAR-8): 1.37 µM (inactive) | GI50 (K562): 1.19 µM (inactive) | GI50 (OVCAR-4): 1.42 µM (inactive)

CC(C)(C)[C@H]1CCC2(OCCO2)[C@](O)(CCCO)C1
GI50 (SK-MEL-5): > 100 µM (inactive) | GI50 (786-0): > 100 µM (inactive) | GI50 (NCI-H23): > 100 µM (inactive) | GI50 (A498): > 100 µM (inactive) | GI50 (NCI-H226): > 100 µM (inactive) | GI50 (MDA-MB-231): > 100 µM (inactive) | GI50 (Hs-578T): > 100 µM (inactive) | GI50 (HT-29): > 100 µM (inactive) | GI50 (CCRF-CEM): > 100 µM (inactive) | GI50 (TK-10): > 100 µM (inactive) | GI50 (SNB-75): > 100 µM (inactive) | GI50 (EKVX): > 100 µM (inactive) | GI50 (OVCAR-5): > 100 µM (inactive) | GI50 (SK-MEL-28): > 100 µM (inactive) | GI50 (SK-OV-3): > 100 µM (inactive) | GI50 (UO-31): > 100 µM (inactive) | GI50 (M14): > 100 µM (inactive) | GI50 (ACHN): > 100 µM (inactive) | GI50 (MDA-MB-435): > 100 µM (inactive) | GI50 (SN12C): > 100 µM (inactive) | GI50 (COLO 205): > 100 µM (inactive) | GI50 (HOP-62): > 100 µM (inactive) | GI50 (SK-MEL-2): > 100 µM (inactive) | GI50 (SNB-19): > 100 µM (inactive) | GI50 (SF-539): > 100 µM (inactive) | GI50 (NCI-H460): > 100 µM (inactive) | GI50 (NCI-H522): > 100 µM (inactive) | GI50 (HOP-92): > 100 µM (inactive) | GI50 (Malme-3M): > 100 µM (inactive) | GI50 (UACC-62): > 100 µM (inactive) | GI50 (DU-145): > 100 µM (inactive) | GI50 (CAKI-1): > 100 µM (inactive) | GI50 (MDA-N): > 100 µM (inactive) | GI50 (SF-268): > 100 µM (inactive) | GI50 (A549): > 100 µM (inactive) | GI50 (SF-295): > 100 µM (inactive) | GI50 (UACC-257): > 100 µM (inactive) | GI50 (BT-549): > 100 µM (inactive) | GI50 (RXF 393): > 100 µM (inactive) | GI50 (HCT-116): > 100 µM (inactive) | GI50 (HL-60): > 100 µM (inactive) | GI50 (MCF7): > 100 µM (inactive) | GI50 (OVCAR-3): > 100 µM (inactive) | GI50 (SW-620): > 100 µM (inactive) | GI50 (MOLT-4): > 100 µM (inactive) | GI50 (IGROV-1): > 100 µM (inactive) | GI50 (T47D): > 100 µM (inactive) | GI50 (RPMI-8226): > 100 µM (inactive) | GI50 (KM12): > 100 µM (inactive) | GI50 (HCC 2998): > 100 µM (inactive) | GI50 (NCI/ADR-RES): > 100 µM (inactive) | GI50 (SR): > 100 µM (inactive) | GI50 (PC-3): > 100 µM (inactive) | GI50 (U-251): > 100 µM (inactive) | GI50 (HCT-15): > 100 µM | GI50 (LOX IMVI): > 100 µM (inactive) | GI50 (OVCAR-8): > 100 µM (inactive) | GI50 (K562): > 100 µM (inactive) | GI50 (OVCAR-4): > 100 µM (inactive)
